Data reported in patent publication US12582652B2, “3-(ethoxydifluoromethyl)-6-(5-fluoro-6-(2,2,2-trifluoroethoxy)pyridin-3-yl)-[1,2,4]triazolo[4,3-a]pyrazine as an ion channel modulator” (Praxis Precision Medicines, Inc., priority 2022, dated 2026).
pIC50: −log10 of the molar value.

Assays:
[1] = in vivo
Source text: (§5) This was a 2-part randomized, placebo-controlled Phase 1 trial in healthy participants aged 18-55 years. […] PD effects were examined on quantitative EEG (qEEG; resting and vigilant conditions) and stimulated EEG using auditory steady state response (ASSR). A total of 48 participants were enrolled; Part A, n=30; Part B, n=18.

human NaV1.6 [2] = target: T1, human NaV1.6 (Homo sapiens, UniProt Q9UQD0); assay: Peak INa voltage-dependent block (VDB), PatchXpress patch clamp; type: cell-based; details: for pIC50: hNaV1.6, half-inactivated (V1/2); for Ratio to Pers. INa (Peak INa VDB / persistent INa): hNaV1.6
T1 construct: stably expressing either human NaV1.6 (NP_055006); expressed in transfected cells
Method: (§1) HEK-293 cell lines stably expressing either human NaV1.6 (NP_055006), mouse NaV1.6 (NP_035453.2), or rat NaV1.6 (NP_062139) were used. All cells were seeded at 2×10^6 cells per Nunc T75 flask for 2 days in culture. At time of harvest for assays, the cell counts were approximately 6×10^6 cells. Cells were washed (1×) in DPBS (Hyclone, Cat #SH30028.03) for approximately 30 seconds. 1 mL of 1×0.05% Trypsin-EDTA (GIBCO Cat #25300-054) was added and swirled around to cover the bottom of the flask and was allowed to sit on the cells for approximately 4 minutes (±90% of the cells were lifted by light tapping of the flask). 10 mL of warmed media (DMEM high glucose media Hyclone, SH30022.02 supplemented with 10% Fetal Bovine Serum, 2 mM Sodium Pyruvate, 10 mM HEPES and 400 μg/mL G418) was added to inactivate the trypsin. Cells were triturated until a single cell suspension was achieved. A cell count was performed and cells were aliquoted into a 250 ml centrifuge tube at a concentration of 2×10^5/mL in +30 ml of prewarmed media. The 250 mL centrifuge tube was placed on a rocker in an incubator set at 28° C. and gently rocked for approximately 1 hour to allow cells to recover. Cell aliquots of 5 mL (1×10^6 cells) were placed in a 15 mL centrifuge tube and spun at 100×g for 2 minutes. Supernatant was removed leaving a cell pellet. 100 μL of external recording solution was added to the pellet and triturated 20 times to achieve a single cell suspension and then transferred to a 1.5 mL tube for placement in the PatchXpress® (Molecular Devices).
(§2) Compound 1 was provided as powder and prepared as 10 mM DMSO stocks in 1 dram glass vials prior to assay. Immediately prior to assay, Compound 1 was diluted with DMSO to 300×, the designated final assay concentration. Assay dilutions (1× concentration) were prepared by pipetting 3 μL of diluted Compound 1 into 897 μL of extracellular solution in a 1 mL glass shell vial. Vials were capped and vortexed until initiation of the PatchXpress® (Molecular Devices) recording protocol.
(§3) The same intracellular recording solution was used for the persistent and peak INa assays, which contained: 135 mM CsF, 10 mM CsCl, 5 mM NaCl, 10 mM HEPES, 5 mM EGTA at a pH of 7.4 (adjusted with CsOH) and a measured osmolarity of 298 mOsm (adjusted with mannitol). For the persistent INa assay, the external recording solution contained: 135 mM NaCl, 5.4 mM KCl, 5 mM glucose, 2 mM CaCl2), 1 mM MgCl2, 10 mM HEPES, and 200 nM ATX-II (sea anemone toxin, Alomone Labs; Jerusalem, Israel) at a pH of 7.4 (adjusted with NaOH) and a measured osmolarity of 300 mOsm (adjusted with mannitol). For the peak INa assays, the external recording solution contained: 100 mM NaCl, 35 mM NMDG, 5.4 mM KCl, 5 mM glucose, 2 mM CaCl2), 1 mM MgCl2, and 10 mM HEPES at a pH of 7.4 (adjusted with NaOH) and a measured osmolarity of 300 mOsm (adjusted with mannitol).
(§4) All studies were performed using the PatchXpress® (Molecular Devices) automated patch clamp platform (Molecular Devices) using the whole cell configuration. Recordings were performed at room temperature. Data were collected using Patch Commander software (Molecular Devices) and processed using DataXpress 2.0 (Molecular Devices). Cell acceptance criteria were continuously monitored by custom scripts during the recording. Acceptance criteria for all assays were: baseline peak INa>800 pA, Rseal>200 MΩ, and, where appropriate, persistent INa>100 pA. Compensation was 50% and leak subtraction was not used. Currents were filtered at 5 kHz and digitized at 32.5 kHz. Raccess and Rseal were monitored throughout the recording and cells with Raccess>10 MΩ or Rseal<200 MΩ were terminated automatically by script.
Voltage Dependent Block (VDB): VDB protocols used a depolarized voltage to keep channels in half-inactivated (resting) states. This allowed equilibrium binding and accurate determination of isoform selectivity (in the absence of biological features).

human NaV1.6 [3] = target: T1, human NaV1.6; assay: Peak INa use-dependent block (UDB-10 Hz), PatchXpress patch clamp; type: cell-based
male CD-1 mice [4] = assay: Spontaneous locomotor activity (sLMA) test; details: for sLMA distance moved, dose-response: Compound 1 10-40 mg/kg po; for Tolerability (sLMA) TD50: dose reducing sLMA by 50%
Method: Male CD-1 mice, 6-weeks old, were obtained from Vital River (Beijing, China). The average body weight was 25-35 g at the time the experiments were carried out. The mice were housed in groups of 3-5 under controlled conditions (temperature: 20-26° C.; humidity: 40-70%; air exchange rate: 10-15 cycles/hour; 12:12 light-dark cycle with lights on at 5:00 a.m.). Food and water were available ad libitum. The mice were acclimated to these conditions for 6 days before the start of the studies.
Dosing solutions were prepared on each experiment day. […] All solutions were protected from light. Samples from dosing solutions were stored at 4° C. Both compound and vehicle were dosed at 10 ml/kg.
The sLMA test was carried out over two days. 5 of 10 mice from each treatment group were tested on each day. All animals were marked on the tail with a permanent marker and weighed. Mice were randomly assigned into one of the four treatment groups. Animals were acclimated to the test room at least 30 minutes before the start of the experiment.
Possible side effects, such as overt sedation, were recorded just before the start of the sLMA test.
Each mouse was automatically tracked with overhead cameras using a 1-minute sampling window in an isolated chamber. Spontaneous locomotor activity was then analyzed offline using the Animal Behavior Video Tracking Analysis System (Ji Liang Software Technology Co., Ltd., Shanghai, China).
Locomotor status was defined as >2 mm of movement in every 200 ms (Frame-rate recorded was 20 frames/second. Locomotor status was identified in every 4 frame-to-frame interval. The accumulated shift of tracking spots that exceeded 2 mm in every 4 frame intervals was identified as a locomotor epoch). Traveling distance was calculated automatically from all the locomotion epochs and analyzed.
All mice were anesthetized with CO2. Then, terminal plasma and brain tissue samples were collected from animals in the drug treatment groups. 500 μL whole blood was collected via cardiac puncture and placed in tubes with 10 μL EDTAK2. The tubes were then placed in wet ice until centrifuged at 2000 g for 5 minutes at 4° C. The supernatant plasma was pipetted into Eppendorf tubes.
All statistical analyses were conducted using GraphPad Prism 7.0. Data are presented as mean±s.e.m., and p<0.05 was regarded as statistically significant.
Dose-response and concentration-response curves for plasma and brain were fitted for each end-point using GraphPad Prism. From these fitted curves, TD50 and TC50 values were calculated.

human NaV1.6 [5] = target: T1, human NaV1.6; assay: ATX-II activated late (persistent) INa block, PatchXpress patch clamp; type: cell-based; details: for pIC50: hNaV1.6, ATX-II-evoked, holding −120 mV
Method: as §1, §2, §3, §4
Late (persistent) current Block: The inhibition of ATX-II activated late current was measured using a 200 ms voltage step to 0 mV. Protocols used low stimulation rates (about 0.1 Hz) and negative potentials (−120 mV) to keep channels in closed (resting) states.

male CD-1 mice [6] = assay: Maximal electroshock induced seizure (MES) test; type: in vivo, mouse; details: for protection (increase in latency) against MES-induced tonic hindlimb seizures, dose-response: Compound 1 0.3-10 mg/kg po; for ED50: mouse MES, read-out: Efficacy (MES) ED50, increasing latency to tonic extension seizures
Method: Food and water were available ad libitum.
VPA was prepared in saline (Vehicle 1). All solutions were protected from light. All compounds and vehicles were dosed at 10 ml/kg.
The MES test was carried out over two days with 6 of 12 mice from each treatment group being tested on each day. Mice were brought to the test room at least one hour before the start of the experiment.
A Grass S88x (Grass Technologies of Astro-Med, Inc., West Warwick, RI) Stimulus Isolation Unit (A385, WPI Inc., USA) was set to deliver a 50 mA square-wave stimulus, with a 0.8 second duration, a pulse width of 10 msec, and a frequency of 50 Hz. A pair of custom stainless steel electrodes were soaked in 0.2% Agar, and then the subject received bilateral transauricular stimulation through ear-clip electrodes. During the stimulation, mice were manually restrained. They were then released into the observation cage for convulsion observation for 60 seconds immediately after stimulation. Each mouse was observed continuously by individuals blinded to treatment conditions and results were recorded.
Anti-seizure assessment endpoints were: (1) latency of hindlimb tonic flexion; (2) latency of hindlimb tonic extension; (3) total #hindlimb tonic flexions; (4) total #hindlimb tonic extensions; (5) latency to death; and (6) mortality rate
From these fitted curves, ED50 and EC50 values were calculated.

human NaV1.6 [7] = target: T1, human NaV1.6; assay: Peak INa tonic block (TB), PatchXpress patch clamp; type: cell-based; details: for pIC50: hNaV1.6, 0.1 Hz, resting state
Method: as §1, §2, §3, §4
Tonic Block (TB): Tonic Block (TB) protocols used low stimulation rates (about 0.1 Hz) and negative potentials (−120 mV) to keep channels in closed (resting) states. Pharmacology was measured during peak INa in response to step to 0 mV. No leak subtraction was used.

healthy participants = assay: 2-part Phase 1 trial (28 days; OXC combination): safety and tolerability; type: in vivo, human; details: Part B, per arm
Source text: as §5

T1 sequence (Q9UQD0 whole entry): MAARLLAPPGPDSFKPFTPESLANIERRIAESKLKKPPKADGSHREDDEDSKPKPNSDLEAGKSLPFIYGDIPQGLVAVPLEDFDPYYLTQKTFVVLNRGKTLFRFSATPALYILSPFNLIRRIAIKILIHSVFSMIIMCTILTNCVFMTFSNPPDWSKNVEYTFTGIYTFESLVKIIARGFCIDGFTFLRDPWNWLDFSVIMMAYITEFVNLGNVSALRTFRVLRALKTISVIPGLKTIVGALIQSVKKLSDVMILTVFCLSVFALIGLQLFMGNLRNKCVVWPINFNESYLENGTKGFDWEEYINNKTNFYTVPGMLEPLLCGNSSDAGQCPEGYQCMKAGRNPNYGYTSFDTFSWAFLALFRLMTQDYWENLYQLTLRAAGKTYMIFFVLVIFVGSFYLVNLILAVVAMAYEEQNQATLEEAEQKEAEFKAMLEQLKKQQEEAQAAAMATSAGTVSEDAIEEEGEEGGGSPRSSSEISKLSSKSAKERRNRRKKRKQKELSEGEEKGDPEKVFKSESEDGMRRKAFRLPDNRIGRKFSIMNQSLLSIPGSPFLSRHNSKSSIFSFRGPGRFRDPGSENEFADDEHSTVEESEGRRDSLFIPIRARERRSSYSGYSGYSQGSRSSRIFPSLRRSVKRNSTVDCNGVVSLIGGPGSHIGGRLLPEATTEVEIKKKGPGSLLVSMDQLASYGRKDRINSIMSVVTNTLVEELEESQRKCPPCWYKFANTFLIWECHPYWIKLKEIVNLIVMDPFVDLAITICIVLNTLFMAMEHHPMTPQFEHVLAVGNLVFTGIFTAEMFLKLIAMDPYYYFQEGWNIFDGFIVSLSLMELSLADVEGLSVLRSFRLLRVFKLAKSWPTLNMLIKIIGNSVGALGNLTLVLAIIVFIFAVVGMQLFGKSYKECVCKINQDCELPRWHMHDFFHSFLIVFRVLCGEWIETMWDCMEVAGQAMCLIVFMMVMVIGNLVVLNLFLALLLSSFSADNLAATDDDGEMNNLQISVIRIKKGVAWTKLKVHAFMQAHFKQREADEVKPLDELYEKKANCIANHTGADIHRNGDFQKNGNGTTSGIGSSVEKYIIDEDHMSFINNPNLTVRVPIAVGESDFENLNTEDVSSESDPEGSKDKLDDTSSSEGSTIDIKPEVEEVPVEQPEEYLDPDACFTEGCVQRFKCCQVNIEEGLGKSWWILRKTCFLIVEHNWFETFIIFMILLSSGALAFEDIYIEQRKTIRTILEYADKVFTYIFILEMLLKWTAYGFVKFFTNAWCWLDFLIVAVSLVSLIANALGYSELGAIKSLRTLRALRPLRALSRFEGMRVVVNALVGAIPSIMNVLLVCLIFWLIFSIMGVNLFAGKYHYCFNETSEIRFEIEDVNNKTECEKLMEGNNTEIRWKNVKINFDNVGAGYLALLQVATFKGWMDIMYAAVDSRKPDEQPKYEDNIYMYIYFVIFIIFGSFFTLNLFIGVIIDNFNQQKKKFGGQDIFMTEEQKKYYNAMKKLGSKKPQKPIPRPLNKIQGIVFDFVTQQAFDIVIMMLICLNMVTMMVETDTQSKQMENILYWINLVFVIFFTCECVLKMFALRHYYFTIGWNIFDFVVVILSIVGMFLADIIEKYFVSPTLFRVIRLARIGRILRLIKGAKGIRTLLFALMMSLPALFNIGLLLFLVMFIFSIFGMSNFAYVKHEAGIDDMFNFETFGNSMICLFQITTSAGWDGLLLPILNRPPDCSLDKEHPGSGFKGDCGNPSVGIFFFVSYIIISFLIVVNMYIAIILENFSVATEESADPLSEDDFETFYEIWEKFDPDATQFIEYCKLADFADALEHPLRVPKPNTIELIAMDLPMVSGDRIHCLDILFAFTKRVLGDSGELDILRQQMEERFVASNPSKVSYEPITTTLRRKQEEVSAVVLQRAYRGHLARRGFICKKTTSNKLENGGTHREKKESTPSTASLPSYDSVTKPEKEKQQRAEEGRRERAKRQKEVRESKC

NC(=O)N1c2ccccc2CC(O)c2ccccc21 (stereo not shown) [10-Hydroxycarbamezapine]
exposure when administered concomitantly with Compound 1 vs alone [1]: appeared to be similar

NC(=O)N1c2ccccc2C=Cc2ccccc21 [Carbamazepine, reference compound]
pIC50 (human NaV1.6 [2]): 4.35 | pIC50 (human NaV1.6 [3]; hNaV1.6, 10 Hz): 2.85 | use-dependent block at stimulation frequency of 10 Hz (human NaV1.6 [3]; hNaV1.6, 10 Hz): not observed | use-dependent block at increased frequencies (human NaV1.6 [3]; hNaV1.6, 10 Hz, 30 Hz or 50 Hz): could be observed | sLMA at the dose required for complete seizure prevention (male CD-1 mice [4]; CBZ): significant reduction | sLMA distance moved, dose-response (male CD-1 mice [4]): dose-dependent reductions | PI (Brain) (male CD-1 mice [4]; brain TC50 (sLMA) / brain EC50 (MES), free concentrations): 5.9 | Tolerability (sLMA) TD50 (male CD-1 mice [4]): 37.6 mg/kg | PI (Plasma) (male CD-1 mice [4]; plasma TC50 (sLMA) / plasma EC50 (MES), free concentrations): 3.4 | pIC50 (human NaV1.6 [5]): 4.11 | mice protected against MES-induced tonic hindlimb seizures (male CD-1 mice [6]; CBZ 30 mg/kg): all mice | protection (increase in latency) against MES-induced tonic hindlimb seizures, dose-response (male CD-1 mice [6]): dose-dependent protection | ED50 (male CD-1 mice [6]): 5 mg/kg | pIC50 (human NaV1.6 [7]): 2.64

NC(=O)O[C@@H](Cn1ncnn1)c1ccccc1Cl [Cenobamate]
Ratio to Pers. INa (Peak INa VDB / persistent INa) (human NaV1.6 [2]): 0.9 | pIC50 (human NaV1.6 [2]): 4.18 | Ratio to Peak INa (TB) (UDB-10 Hz) (human NaV1.6 [3]; hNaV1.6): 2.3 | Ratio to Pers. INa (Peak INa UDB-10 Hz / persistent INa) (human NaV1.6 [3]; hNaV1.6): 11 | pIC50 (human NaV1.6 [3]; hNaV1.6, 10 Hz): 3.13 | pIC50 (human NaV1.6 [5]): 4.14 | Ratio to Pers. INa (Peak INa TB / persistent INa) (human NaV1.6 [7]; hNaV1.6): 24 | pIC50 (human NaV1.6 [7]): 2.76

COC[C@@H](NC(C)=O)C(=O)NCc1ccccc1 [Lacosamide]
Ratio to Pers. INa (Peak INa VDB / persistent INa) (human NaV1.6 [2]): 0.3 | pIC50 (human NaV1.6 [2]): 3.57 | Ratio to Pers. INa (Peak INa UDB-10 Hz / persistent INa) (human NaV1.6 [3]; hNaV1.6): 0.8 | pIC50 (human NaV1.6 [3]; hNaV1.6, 10 Hz): 3.17 | pIC50 (human NaV1.6 [5]): 3.08

Nc1nnc(-c2cccc(Cl)c2Cl)c(N)n1 [Lamotrigine, reference compound]
sLMA distance moved, dose-response (male CD-1 mice [4]): dose-dependent reductions | Tolerability (sLMA) TD50 (male CD-1 mice [4]): 26.5 mg/kg | protection (increase in latency) against MES-induced tonic hindlimb seizures, dose-response (male CD-1 mice [6]): dose-dependent protection | mice protected against MES-induced tonic hindlimb seizures (male CD-1 mice [6]; LTG 10 mg/kg, highest dose tested): eight of 12 | ED50 (male CD-1 mice [6]): 3.4 mg/kg

NC(=O)N1c2ccccc2CC(=O)c2ccccc21 [Oxcarbazepine]
Ratio to Pers. INa (Peak INa VDB / persistent INa) (human NaV1.6 [2]): 0.3 | pIC50 (human NaV1.6 [2]): 4.38 | patients in whom TEAEs were observed (number) (healthy participants): 3 | patients in whom TEAEs were observed (percent) (healthy participants): 75% | exposure when administered concomitantly with Compound 1 vs alone [1]: appeared to be similar | pIC50 (human NaV1.6 [5]): 3.91 | Ratio to Pers. INa (Peak INa TB / persistent INa) (human NaV1.6 [7]; hNaV1.6): 8 | pIC50 (human NaV1.6 [7]): 2.99

O=C1NC(=O)C(c2ccccc2)(c2ccccc2)N1 [Phenytoin]
Ratio to Pers. INa (Peak INa VDB / persistent INa) (human NaV1.6 [2]): 0.8 | pIC50 (human NaV1.6 [2]): 4.32 | Ratio to Pers. INa (Peak INa UDB-10 Hz / persistent INa) (human NaV1.6 [3]; hNaV1.6): 15 | pIC50 (human NaV1.6 [3]; hNaV1.6, 10 Hz): 3.06 | pIC50 (human NaV1.6 [5]): 4.22

CCCC(CCC)C(=O)O [Valproic acid]
inhibition at 1000 µM (human NaV1.6 [3]; hNaV1.6, 1 mM): 8% | inhibition at 1000 µM (human NaV1.6 [5]; hNaV1.6, 1 mM): 2% | inhibition at 1000 µM (human NaV1.6 [7]; hNaV1.6, 1 mM): 11%
